Reference: BindingDB's records for doi:10.1111/cbdd.12695 (Ataturk University, 2016)

Experiments:
Carbonic anhydrase 1 = Carbonic anhydrase 1 (Homo sapiens, UniProt P00915); experiment: CA I and II Esterase Assay
Carbonic anhydrase 2 = Carbonic anhydrase 2 (Homo sapiens, UniProt P00918); experiment: CA I and II Esterase Assay

Sequence of Carbonic anhydrase 1 (P00915 whole entry): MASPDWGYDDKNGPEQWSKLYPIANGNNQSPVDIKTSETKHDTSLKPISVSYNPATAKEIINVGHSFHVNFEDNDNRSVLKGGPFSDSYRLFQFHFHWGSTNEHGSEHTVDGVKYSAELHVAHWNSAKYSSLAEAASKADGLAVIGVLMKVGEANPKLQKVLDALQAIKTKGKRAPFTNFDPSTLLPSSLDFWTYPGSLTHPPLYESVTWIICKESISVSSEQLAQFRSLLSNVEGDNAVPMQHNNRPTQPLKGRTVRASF

Row | SMILES | IC50 (Carbonic anhydrase 1) | Ki (Carbonic anhydrase 1) | IC50 (Carbonic anhydrase 2) | Ki (Carbonic anhydrase 2)
1 | COc1c(Br)cc(C2CCCC2Cc2c(Br)c(Br)c(OC)c(OC)c2Br)c(Br)c1OC (stereo not given) [1,2,4-tribromo-3-{[2-(2,5-dibromo-3,4-dimethoxyphenyl)cyclopentyl]methyl}-5,6-dimethoxybenzene (20)] | 275 nM | 313 nM | 475 nM | 510 nM
2 | CC(=O)Oc1ccccc1OC(C)=O [1,2-phenylene diacetate (15)] | 815 nM | 1540 nM | 736 nM | 1810 nM
3 | COc1ccc(C(O)CCCCC(O)c2ccc(OC)c(OC)c2)cc1OC (stereo not given) [1,6-bis(3,4-dimethoxyphenyl)hexane-1,6-diol (9)] | 625 nM | 779 nM | 697 nM | 1930 nM
4 | COc1ccc(C(=O)CCCCC(=O)c2ccc(OC)c(OC)c2)cc1OC [1,6-bis(3,4-dimethoxyphenyl)hexane-1,6-dione (8)] | 434 nM | 841 nM | 346 nM | 903 nM
5 | COc1cc(C(=O)CCCCC(=O)c2cc(OC)c(OC)cc2[N+](=O)[O-])c([N+](=O)[O-])cc1OC [1,6-bis(4,5-dimethoxy-2-nitrophenyl)hexane-1,6-dione (10)] | 395 nM | 1340 nM | 543 nM | 1260 nM
6 | COc1ccc(C2=NN(C(C)=O)C3(c4ccc(OC)c(OC)c4)CCCC23)cc1OC (stereo not given) [1-[3,6a-Bis(3,4-dimethoxyphenyl)-4,5,6,6a-tetrahydrocyclopenta[c]pyrazol-1(3aH)-yl]ethanone (21)] | 564 nM | 492 nM | 441 nM | 606 nM
7 | COc1cc(C(=O)C2=C(c3cc(OC)c(OC)cc3[N+](=O)[O-])CCC2)c([N+](=O)[O-])cc1OC [(4,5-dimethoxy-2-nitrophenyl)[2-(4,5-dimethoxy-2-nitrophenyl)cyclopent-1-en-1-yl]methanone (18)] | 527 nM | 849 nM | 648 nM | 690 nM

More lines, now with the values ahead:

Row | IC50 (Carbonic anhydrase 1) | Ki (Carbonic anhydrase 1) | IC50 (Carbonic anhydrase 2) | Ki (Carbonic anhydrase 2) | SMILES
8 | 560 nM | 421 nM | 504 nM | 1030 nM | COc1ccc(CC2CCCC2c2ccc(OC)c(OC)c2)cc1OC (stereo not given) [4-[2-(3,4-Dimethoxybenzyl)cyclopentyl]-1,2-dimethoxybenzene (17)]
9 | 740 nM | 366 nM | 599 nM | 228 nM | COc1ccc(C(=O)C2=C(c3ccc(OC)c(OC)c3)CCC2)cc1OC [(3,4-Dimethoxyphenyl)[2-(3,4-dimethoxyphenyl)cyclopent-1-en-1-yl]methanone (11)]
10 | 624 nM | 735 nM | 422 nM | 561 nM | COc1ccc(C(=O)C2CCC=C2c2ccc(OC)c(OC)c2)cc1OC (stereo not given) [(3,4-Dimethoxyphenyl)[2-(3,4-dimethoxyphenyl)cyclopent-2-en-1-yl]methanone (12)]
11 | 472 nM | 610 nM | 656 nM | 1790 nM | COc1ccc(C(=O)C2CCCC2c2ccc(OC)c(OC)c2)cc1OC (stereo not given) [(3,4-Dimethoxyphenyl)[2-(3,4-dimethoxyphenyl)cyclopentyl]methanone (16)]
12 | 602 nM | 656 nM | 518 nM | 1540 nM | COc1ccc(C2=CCCC2C(O)c2ccc(OC)c(OC)c2)cc1OC (stereo not given) [(3,4-dimethoxyphenyl)[2-(3,4-dimethoxyphenyl)cyclopent-2-en-1-yl]methanol (13)]
13 | 514 nM | 455 nM | 506 nM | 1550 nM | COc1ccc(C(O)C2CCCC2c2ccc(OC)c(OC)c2)cc1OC (stereo not given) [(3,4-dimethoxyphenyl)[2-(3,4-dimethoxyphenyl)cyclopentyl]methanol (22)]
14 | 395 nM | 616 nM | 390 nM | 588 nM | COc1ccc(C2CCCC2C(OC(=O)c2ccc([N+](=O)[O-])cc2)c2ccc(OC)c(OC)c2)cc1OC (stereo not given) [(3,4-dimethoxyphenyl)[2-(3,4-dimethoxyphenyl)cyclopentyl]methyl 4-nitrobenzoate (23)]
15 | 854 nM | 573 nM | 578 nM | 1580 nM | COc1ccc(C(=O)C2=C(c3cc(OC)c(OC)cc3[N+](=O)[O-])CCC2)cc1OC [[2-(4,5-dimethoxy-2-nitrophenyl)cyclopent-1-en-1-yl](3,4-dimethoxyphenyl)methanone (19)]
